Results taken from paper PMC12627007, “HIV nucleocapsid proteins as targets for novel 1,2-benzisothiazol-3(2H)-one benzenesulfonamides: synthesis and antiretroviral activity” (Frontiers in Microbiology, 2025).
Read-outs that look alike come from different tables or passages of the source.

Experiments:
HIV-1 IIIB strain = experiment: microbe, parasite or virus in culture; format: cell-based; conditions: for EC50: Human immunodeficiency virus 1, IIIB; for Selectivity Index (SI = CC50/EC50) HIV-1: IIIB strain, in round brackets
Method: (§1) HIV-1IIIB and HIV-2 CBL-20 strains were obtained from the supernatants of persistently infected H9/IIIB and CEM cells, respectively. HIV-1 and HIV-2 stock solutions had titres of 4.5 × 10^7 and 1.4 × 10^6 50% cell culture infectious doses (CCID50)/ml, respectively. […] The K103R + V179D + P225H mutant (EFVR) was derived from an IIIB strain passaged in MT-4 cells in the presence of Efavirenz (up to 2 μM). N119, A17 and EFV^R stock solutions had titres of 1.2 × 10^8, 2.1 × 10^7, and 4.0 × 10^7 CCID50/ml, respectively.
(§2) The activity of the test compounds against the replication of HIV-1 wt and mutant strains (N119, A17, EFV^R, AZT^R, MDR, SAQ^R) and HIV-2 wt in acutely infected cells was based on the inhibition of virus-induced cytopathogenicity in MT-4 and C8166 cells, respectively. Briefly, 50 μL of culture medium containing 1 × 10^4 cells was added to each well of flat-bottom microtitre trays containing 50 μL of culture medium with or without different serial concentrations of test compounds. Then, 20 μL of an HIV suspension (containing the appropriate amount of CCID50 required to cause complete cytopathogenicity on day 4, final multiplicity of infection [m.o.i.] 0.01) was added.

cell-free HIV-2 = experiment: Virucidal activity against cell-free HIV-2 (Reed-Muench titration); format: cell-based; conditions: 0 °C; compound 6 80 μM, AMPH-B 100 μM
Method: (§3) Cell-free, high-titre HIV-1 and HIV-2 stock solutions were exposed to the test compounds for 2 h at 0 °C or 37 °C. At the end of incubation, residual infectivity was determined using the Reed–Muench end-point titration method, as described below.
(§4) Titration was performed in C8166 cells using the standard limiting dilution method (dilution 1:2, four replica wells/dilution) in 96-well plates.

cell-free HIV-1 = experiment: Virucidal activity against cell-free HIV-1 (Reed-Muench titration); format: cell-based; conditions: 0 °C; compound 6 80 μM, AMPH-B 100 μM
Method: as §3, §4

HIV-2 CBL-20 strain = experiment: Inhibition of HIV-2-induced cytopathogenicity in C8166 cells (MTT); format: cell-based; conditions: for Selectivity Index (SI = CC50/EC50) HIV-2: in round brackets
Method: as §1, §2

[1] = system: HIV-1 SAQR (L10F, G48V, L90M); experiment: Inhibition of virus-induced cytopathogenicity in MT-4 cells, PRI-resistant mutant SAQR; format: cell-based; conditions: for EC50: Human immunodeficiency virus 1, MT4, read-out: EC50 SAQR; for Selectivity Index (SI = CC50/EC50) SAQR: in round brackets
Method: as §1, §2

[2] = Cytotoxicity in mock-infected MT-4 cells (MTT method); format: cell-based; conditions: human
Method: as §2, with “added. After incubation at 37 °C, cell viability was determined using the […] (MTT) method ([Pauwels et al., 1988]). The cytotoxicity of the test compounds was evaluated in parallel with their antiviral activity through the viability of mock-infected, treated cells, as monitored by the MTT method and described elsewhere ([Morellet et al., 1994]).” for “added.”

HIV-1 N119 (Y181C) = experiment: Inhibition of virus-induced cytopathogenicity in MT-4 cells, NNRTI-resistant mutant N119; format: cell-based; conditions: for EC50: Human immunodeficiency virus 1, MT4, read-out: EC50 N119; for Selectivity Index (SI = CC50/EC50) N119: in round brackets
Method: as §1, §2

[3] = system: HIV-1 EFVR (K103R + V179D + P225H); experiment: Inhibition of virus-induced cytopathogenicity in MT-4 cells, NNRTI-resistant mutant EFVR; format: cell-based; conditions: for EC50: Human immunodeficiency virus 1, MT4, read-out: EC50 EFVR; for Selectivity Index (SI = CC50/EC50) EFVR: in round brackets
Method: as §1, §2

[4] = system: HIV-1 AZTR (67N, 70R, 215F, 219Q); experiment: Inhibition of virus-induced cytopathogenicity in MT-4 cells, NRTI-resistant mutant AZTR; format: cell-based; conditions: for EC50: Human immunodeficiency virus 1, MT4, read-out: EC50 AZTR; for Selectivity Index (SI = CC50/EC50) AZTR: in round brackets
Method: as §1, §2

[5] = system: HIV-1 A17 (K103N + Y181C); experiment: Inhibition of virus-induced cytopathogenicity in MT-4 cells, NNRTI-resistant mutant A17; format: cell-based; conditions: for EC50: Human immunodeficiency virus 1, MT4, read-out: EC50 A17; for Selectivity Index (SI = CC50/EC50) A17: in round brackets
Method: as §1, §2

[6] = system: HIV-1 MDR (74V, 41L, 106A, 215Y); experiment: Inhibition of virus-induced cytopathogenicity in MT-4 cells, NRTI-resistant mutant MDR; format: cell-based; conditions: for EC50: Human immunodeficiency virus 1, MT4, read-out: EC50 MDR; for Selectivity Index (SI = CC50/EC50) MDR: in round brackets
Method: as §1, §2

[7] = microbe, parasite or virus in culture; format: cell-based, HIV-1; conditions: all tested strains (HIV-1 wt, mutants, HIV-2)
Method: as §1, §2

[8] = biological target: T1, HIV-1 reverse transcriptase (Human immunodeficiency virus type 1 group M subtype B, UniProt P04585); experiment: Reverse transcriptase enzyme assay; format: biochemical; conditions: for Inhibition of recombinant HIV-1 RT: at concentrations of 30 μM
T1 construct: recombinant HIV-1 reverse transcriptase

[9] = biological target: T2, HIV-1 recombinant integrase (rIN) (Human immunodeficiency virus type 1 group M subtype B, UniProt P04585); experiment: Integrase (rIN) enzyme assays: 3'-processing and strand transfer; format: biochemical; conditions: for Inhibition of recombinant HIV-1 IN: at concentrations of 30 μM
T2 construct: HIV-1 recombinant integrase (rIN); made in house
Source text: ^aCompound concentration (µM) required to reduce the amount of 3’-end-labeled duplex of 21/19mers substrates, in 3’-processing and strand-transfer reactions catalyzed by the recombinant HIV-1 integrase, by 50%. Data represent mean values for three independent determinations.

[10] = Human immunodeficiency virus 2, C8166, read-out: EC50 HIV-2
[11] = read-out: IC50 Strand-transfer, recombinant HIV-1 integrase

Structure (SMILES)	EC50 (HIV-1 IIIB strain; MT4, read-out: EC50 HIV-1) [µM]	EC50 [1] [µM]	EC50 (HIV-1 N119 (Y181C)) [µM]	EC50 [3] [µM]	EC50 [4] [µM]	EC50 [5] [µM]	EC50 [6] [µM]	EC50 (HIV-2 CBL-20 strain; [10]) [µM]	Selectivity Index (SI) against all tested strains [7]	Selectivity Index (SI = CC50/EC50) HIV-1 (HIV-1 IIIB strain)	Selectivity Index (SI = CC50/EC50) SAQR [1]	CC50 at 4 days [2] [µM]	Selectivity Index (SI = CC50/EC50) N119 (HIV-1 N119 (Y181C))	Selectivity Index (SI = CC50/EC50) EFVR [3]	Selectivity Index (SI = CC50/EC50) AZTR [4]	Selectivity Index (SI = CC50/EC50) A17 [5]	IC50 [8] [µM]	Inhibition of recombinant HIV-1 RT [8]	Selectivity Index (SI = CC50/EC50) MDR [6]	Selectivity Index (SI = CC50/EC50) HIV-2 (HIV-2 CBL-20 strain)	also measured
C[C@@H]1[C@H](O)[C@@H](C)/C=C/C=C/C=C/C=C/C=C/C=C/C=C/[C@H](O[C@@H]2O[C@H](C)[C@@H](O)[C@H](N)[C@@H]2O)C[C@@H]2O[C@](O)(C[C@@H](O)C[C@@H](O)[C@H](O)CC[C@@H](O)C[C@@H](O)CC(=O)O[C@H]1C)C[C@H](O)[C@H]2C(=O)O [AMPH-B, Amphotericin B, reference compound]																					EC50 (HIV-1 IIIB strain; MT4, read-out: EC50 HIV-1 (Table 2)): 6 ± 3 µM; Effect on HIV-2 infectivity, incubation at 0 °C (cell-free HIV-2): more than 1 log10; Effect on HIV-1 infectivity, incubation at 0 °C (cell-free HIV-1): still able to reduce it by a high percentage; EC50 (HIV-2 CBL-20 strain; Human immunodeficiency virus 2, C8166, read-out: EC50 HIV-2 (Table 2)): 2 ± 0.3 µM
Cc1cn([C@H]2C[C@H](N=[N+]=[N-])[C@@H](CO)O2)c(=O)[nH]c1=O [AZT, azidothymidine, reference compound]	0.01 ± 0.003	0.01 ± 0.005	0.02 ± 0.001	0.01 ± 0.002	0.2 ± 0.05	0.01 ± 0.003	0.2 ± 0.07	0.008 ± 0.001													CC50 ([2]; MT-4, MTT method): ≥ 20 µM
Cc1ccc(S(=O)(=O)Nn2sc3ccccc3c2=O)cc1 [Compound 7, 4-Methyl-N-(3-oxo-1,2-benzisothiazol-2(3H)-yl)benzenesulfonamide]	10 ± 3	9 ± 2	5 ± 0.1	8 ± 3	8 ± 1	8 ± 1	6 ± 0.7	4 ± 0.7	around 10	3.5	3	35 ± 1	7	4	4	4	> 30	none of the benzenesulfonamides were active	5	8	IC50 [9]: > 30 µM; Inhibition of recombinant HIV-1 IN [9]: none of the benzenesulfonamides were active; IC50 [9, 11]: > 30 µM
Cc1ccc2sn(NS(=O)(=O)c3ccccc3Cl)c(=O)c2c1 [Compound 17, 2-Chloro-N-(5-methyl-3-oxo-1,2-benzisothiazol-2(3H)-yl)benzenesulfonamide]	2 ± 1	6 ± 1	5 ± 0.7	5 ± 2	4 ± 0.7	9 ± 3	3 ± 0.5	4 ± 0.5	around 10	36	12	73 ± 0.1	14	14	18	8			23	18	
O=c1c2ccc(Cl)cc2sn1NS(=O)(=O)c1ccccc1Cl [Compound 19, 2-Chloro-N-(6-chloro-3-oxo-1,2-benzisothiazol-2(3H)-yl)benzenesulfonamide]	11 ± 3	21 ± 1	14 ± 3	7 ± 2	14 ± 1	≥ 33	11 ± 2	12 ± 2	around 10	5	2	60 ± 4	4	8	5		> 30	none of the benzenesulfonamides were active	5	5	IC50 [9]: > 30 µM; Inhibition of recombinant HIV-1 IN [9]: none of the benzenesulfonamides were active; IC50 [9, 11]: > 30 µM
